Measured values published in US8748433B2, “β3 adrenergic receptor agonists” (Merck Sharp & Dohme Corp., priority 2010, dated 2014).

Molecular target: T1, human β3 adrenergic receptor (Homo sapiens, UniProt P13945)
T1 construct: expressed in transfected cells; host or cells: CHO cells, stably transfected
Assay: Functional assay: cAMP production in CHO cells stably transfected with cloned β3-adrenergic receptor (LANCE TR-FRET)
Type: cell-based
Conditions: Table 1, read-out: Human β3 agonist functional activity
Experimental: cAMP production in response to ligand is measured according to Barton, et al. (1991, Agonist-induced desensitization of D2 dopamine receptors in human Y-79 retinoblastoma cells. Mal. Pharmacol. v3229:650-658) modified as follows. cAMP production is measured using a homogenous time-resolved fluorescence resonance energy transfer immunoassay (LANCE™, Perkin Elmer) according to the manufacture's instructions. Chinese hamster ovary (CHO) cells, stably transfected with the cloned β-adrenergic receptor (β1, β2 or β3) are harvested after 3 days of subculturing. Harvesting of cells is done with Enzyme-free Dissociation. Media (Specialty Media). Cells are then counted and resuspended in assay buffer (Hank's Balanced salt solution supplemented with 5 mM HEPES, 0.1% BSA) containing a phosphodiesterase inhibitor (IBMX, 0.6 mM). The reaction is initiated by mixing 6,000 cells in 6 μL with 6 μL Alexa Fluor labeled cAMP antibody (LANCE™ kit) which is then added to an assay well containing 12 μL of compound (diluted in assay buffer to 2× final concentration). The reaction proceeds for 30 min at room temperature and is terminated by the addition of 24 μL detection buffer (LANCE™ kit). The assay plate is then incubated for 1 h at room temperature and time-resolved fluorescence measured on a Perkin Elmer Envision reader or equivalent. The unknown cAMP level is determined by comparing fluorescence levels to a cAMP standard curve.
The non-selective, full agonist β-adrenergic ligand isoproterenol is used at all three receptors to determine maximal stimulation. The human β3 adrenergic receptor (AR) selective ligand (S)—N-[4-[2-[[2-hydroxy-3-(4-hydroxyphenoxy)propyl]amino]ethyl]-phenyl]-4-iodobenzenesulfonamide is used as a control in all assays. Isoproterenol is titrated at a final concentration in the assay of 10^-10 M to 10-5 and the selective ligand (S)—N-[4-[2-[[2-hydroxy-3-(4-hydroxyphenoxy)propyl]amino]ethyl]phenyl]-4-iodobenzenesulfonamide is titrated at the β3 receptor at concentration of 10^-10 M to 10^-5 M. Unknown ligands are titrated at all 3β-adrenergic receptor subtypes at a final concentration in the assay of 10^-10 M to 10^-5 M to determine the EC50. The EC50 is defined as the concentration of compound that gives 50% activation of its own maximum. Data are analyzed using Microsoft Excel and Graphpad Prism or an internally developed data analysis software package.

T1 sequence (P13945 whole entry): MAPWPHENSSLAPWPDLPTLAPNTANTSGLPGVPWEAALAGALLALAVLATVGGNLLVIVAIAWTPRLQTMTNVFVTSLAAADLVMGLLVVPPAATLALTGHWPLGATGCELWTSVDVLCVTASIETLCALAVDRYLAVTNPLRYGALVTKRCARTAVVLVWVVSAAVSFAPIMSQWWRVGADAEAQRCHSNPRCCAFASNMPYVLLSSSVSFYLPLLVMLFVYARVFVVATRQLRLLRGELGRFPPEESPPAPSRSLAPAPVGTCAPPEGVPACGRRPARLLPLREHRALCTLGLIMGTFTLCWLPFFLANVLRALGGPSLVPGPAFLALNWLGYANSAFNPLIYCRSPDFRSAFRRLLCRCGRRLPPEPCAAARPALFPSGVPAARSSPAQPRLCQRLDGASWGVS

SMILES | EC50 [nM]
OC(c1ccccc1)C1CCC(Cc2ccc3nc(CCc4cnn(-c5ccccc5)c4)[nH]c3c2)N1 (centres unmarked) [Example 11] | 101 to 1000
Cc1nn(-c2ccccc2)c(C)c1CCc1nc2ccc(C[C@@H]3CC[C@H]([C@H](O)c4ccccc4)N3)cc2[nH]1 [Example 12] | 101 to 1000
OC(c1ccccc1)C1CCC(Cc2ccc3nc(CCn4cnc5ccccc54)[nH]c3c2)N1 (centres unmarked) [Example 13] | 101 to 1000
Cc1cc2ncn(CCc3nc4ccc(C[C@@H]5CC[C@H]([C@H](O)c6ccccc6)N5)cc4[nH]3)c2cc1C [Example 14] | 101 to 1000
O[C@H](c1ccccc1)[C@H]1CC[C@@H](Cc2ccc3nc(CCn4cncn4)[nH]c3c2)N1 [Example 15] | 101 to 1000
O[C@H](c1ccccc1)[C@H]1CC[C@@H](Cc2ccc3nc(C4CCc5ccnn54)[nH]c3c2)N1 (some centres unmarked) [Example 16] | 101 to 1000
O=C1c2ccccc2C(=O)N1Cc1nc2ccc(C[C@@H]3CC[C@H]([C@H](O)c4ccccc4)N3)cc2[nH]1 [Example 17] | 101 to 1000
O=c1ccncn1Cc1nc2ccc(C[C@@H]3CC[C@H]([C@H](O)c4ccccc4)N3)cc2[nH]1 [Example 19] | 101 to 1000
Cc1nc(Cc2nc3ccc(C[C@@H]4CC[C@H]([C@H](O)c5ccccc5)N4)cc3[nH]2)c(C)s1 [Example 20] | 101 to 1000
OC(c1cccnc1)C1CCC(Cc2ccc3nc(C4CCc5scnc54)[nH]c3c2)N1 (centres unmarked) [Example 26] | 101 to 1000
CC(c1cscn1)c1nc2ccc(C[C@@H]3CC[C@H]([C@H](O)c4cccnc4)N3)cc2[nH]1 (some centres unmarked) [Example 27] | 101 to 1000
C[C@@H](c1nc2ccc(C[C@@H]3CC[C@H]([C@H](O)c4cccnc4)N3)cc2[nH]1)n1cccnc1=O [Example 28] | 101 to 1000
Cc1nc2c(s1)CCC2c1nc2ccc(C[C@@H]3CC[C@H]([C@H](O)c4cccnc4)N3)cc2[nH]1 (some centres unmarked) [Example 29] | 101 to 1000
O=C1c2ccccc2C(=O)N1Cc1nc2ccc(C[C@@H]3CC[C@H]([C@H](O)c4cccnc4)N3)cc2[nH]1 [Example 31] | 101 to 1000
CS(=O)(=O)c1ccc(-c2nc3ccc(C[C@@H]4CC[C@H]([C@H](O)c5cccnc5)N4)cc3[nH]2)cc1 [Example 33] | 101 to 1000
O=C(O)c1ccccc1-c1nc2ccc(C[C@@H]3CC[C@H]([C@H](O)c4cccnc4)N3)cc2[nH]1 [Example 35] | 101 to 1000
O=C(O)c1cccc(-c2nc3ccc(C[C@@H]4CC[C@H]([C@H](O)c5cccnc5)N4)cc3[nH]2)c1 [Example 36] | 101 to 1000
O[C@H](c1cccnc1)[C@H]1CC[C@@H](Cc2ccc3nc(-c4c(F)cccc4F)[nH]c3c2)N1 [Example 38] | 101 to 1000
Oc1cccc(-c2nc3ccc(C[C@@H]4CC[C@H]([C@H](O)c5cccnc5)N4)cc3[nH]2)n1 [Example 40] | 1000 to 3000
O[C@H](c1cccnc1)[C@H]1CC[C@@H](Cc2ccc3nc(-c4ccccc4-c4ncc[nH]4)[nH]c3c2)N1 [Example 41] | 101 to 1000
O[C@H](c1cccnc1)[C@H]1CC[C@@H](Cc2ccc3nc(C4CCc5ccnn54)[nH]c3c2)N1 (some centres unmarked) [Example 42] | 101 to 1000

Now from value to molecule:

EC50 [nM] | SMILES
11 to 100 | C[C@@H](c1nc2ccc(CC3CC[C@H]([C@H](O)c4ccccc4)N3)cc2[nH]1)n1cccnc1=O (stereo partly drawn) [Example 1, 1-{(1S)-[6-({(2S,5R)-5-[(R)-Hydroxy(phenyl)methyl]pyrrolidin-2-yl}methyl)-1H-benzimidazol-2-yl]ethyl}pyrimidin-2(1H)-one]
101 to 1000 | CCc1nc2ccccc2n1CCc1nc2ccc(C[C@@H]3CC[C@H]([C@H](O)c4ccccc4)N3)cc2[nH]1 [Example 5]
101 to 1000 | OC(c1ccccc1)C1CCC(Cc2ccc3nc(CCCn4cccn4)[nH]c3c2)N1 (centres unmarked) [Example 6]
11 to 100 | O[C@H](c1ccccc1)[C@H]1CC[C@@H](Cc2ccc3nc(CCn4ncc5ccccc54)[nH]c3c2)N1 [Example 7]
101 to 1000 | Cc1nc(Cc2nc3ccc(C[C@@H]4CC[C@H]([C@H](O)c5ccccc5)N4)cc3[nH]2)cs1 [Example 8]
101 to 1000 | O[C@H](c1ccccc1)[C@H]1CC[C@@H](Cc2ccc3nc(CCn4ccnc4-c4ccccc4)[nH]c3c2)N1 [Example 10]
11 to 100 | Cc1nc2c(s1)CCC2c1nc2ccc(C[C@@H]3CC[C@H]([C@H](O)c4ccccc4)N3)cc2[nH]1 (some centres unmarked) [Example 21]
11 to 100 | O[C@H](c1ccccc1)[C@H]1CC[C@@H](Cc2ccc3nc(C4CCc5scnc54)[nH]c3c2)N1 (some centres unmarked) [Example 24]
11 to 100 | CS(=O)(=O)c1ccccc1-c1nc2ccc(C[C@@H]3CC[C@H]([C@H](O)c4cccnc4)N3)cc2[nH]1 [Example 32]
11 to 100 | CS(=O)(=O)c1cccc(-c2nc3ccc(C[C@@H]4CC[C@H]([C@H](O)c5cccnc5)N4)cc3[nH]2)c1 [Example 34]
11 to 100 | O=C(O)c1ccc(-c2nc3ccc(C[C@@H]4CC[C@H]([C@H](O)c5cccnc5)N4)cc3[nH]2)cc1 [Example 37]
11 to 100 | OC(c1cccnc1)C1CCC(Cc2ccc3nc(-c4ccccc4C(F)(F)F)[nH]c3c2)N1 (centres unmarked) [Example 39]

Same assay, conditions: Table 2, read-out: Human β3 agonist functional activity

EC50 [nM] | SMILES
1000 to 3000 | Cc1nc2c(s1)CCC2c1nc2ccc(C[C@@H]3CC[C@H]([C@H](O)c4ccccc4)N3)cc2n1C (single isomer, unassigned) [Example 43]
1000 to 3000 | Cc1nc2c(s1)CCC2c1nc2ccc(C[C@@H]3CC[C@H]([C@H](O)c4ccccc4)N3)cc2n1C (single isomer, unassigned) [Example 44]

Same assay, conditions: Table 3, read-out: Human β3 agonist functional activity

EC50 [nM] | SMILES
101 to 1000 | Cc1nc2c(s1)CCC2c1nc2cc(C[C@@H]3CC[C@H]([C@H](O)c4ccccc4)N3)ccc2n1C (single isomer, unassigned) [Example 45]
1000 to 3000 | Cc1nc2c(s1)CCC2c1nc2cc(C[C@@H]3CC[C@H]([C@H](O)c4ccccc4)N3)ccc2n1C (single isomer, unassigned) [Example 46]

Molecular target: T2, β3AR (Rattus norvegicus, UniProt P26255)
T2 construct: host or cells: live rats (in vivo, bladder)
Assay: not given
Conditions: rats, intravenous administration, cystometric studies; cited from earlier work

T2 sequence (P26255 whole entry): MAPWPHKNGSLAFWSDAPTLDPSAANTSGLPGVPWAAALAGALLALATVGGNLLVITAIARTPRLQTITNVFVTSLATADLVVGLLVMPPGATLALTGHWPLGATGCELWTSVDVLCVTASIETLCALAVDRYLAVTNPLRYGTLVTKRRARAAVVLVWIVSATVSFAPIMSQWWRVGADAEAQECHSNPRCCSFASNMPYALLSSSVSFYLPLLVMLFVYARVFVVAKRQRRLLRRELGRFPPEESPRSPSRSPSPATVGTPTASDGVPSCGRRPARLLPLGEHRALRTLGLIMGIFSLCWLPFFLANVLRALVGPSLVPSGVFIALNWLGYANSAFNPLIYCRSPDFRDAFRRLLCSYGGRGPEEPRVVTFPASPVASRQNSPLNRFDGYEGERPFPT

SMILES | bladder capacity | micturition interval | residual urine volume
C[C@H](Cc1ccc2c(c1)OC(C(=O)[O-])(C(=O)[O-])O2)NC[C@H](O)c1cccc(Cl)c1.[Na+].[Na+] [CL316243] | increases bladder capacity | prolongation of micturition interval | without increasing residual urine volume

Same assay, conditions: rats, intravenous administration; cited from earlier work

SMILES | bladder pressure
C[C@H](Cc1ccc2c(c1)OC(C(=O)[O-])(C(=O)[O-])O2)NC[C@H](O)c1cccc(Cl)c1.[Na+].[Na+] [CL316243] | reduces bladder pressure
